Measurements taken from article PMC6102691, “Identification of a novel ligand for the ATAD2 bromodomain with selectivity over BRD4 through a fragment growing approach” (Organic & Biomolecular Chemistry, 2018).

Key:
BRD4 = BRD4 (Homo sapiens, UniProt O60885); assay: Surface plasmon resonance (SPR) direct binding to BRD4; conditions: SPR format assay; Kd above the top concentration projected by extrapolation (extrapolated Rmax from control compound)
Description: Surface plasmon resonance (SPR) was used to assess the direct binding of the fragments and provide Kd values for binding to both ATAD2 and BRD4. SPR can yield artefactual data where the concentration of a small-molecular analyte exceeds ∼250 μM, and accordingly, this was the highest concentration used in the assays. Where the Kd exceeded this limit, projected Kds were determined by extrapolation, using the observed response units for compound binding (RU) relative to the molecular weight of a known control compound.[23]
(§1) 12.5 μM using an Echo 550 (Labcyte). Each well was backfilled to a final volume of 200 nl (for the […]), resulting in final DMSO concentrations of 2 %. 5 μl of GST-ATAD2 was added to each well and incubated for 30mins resulting in a final concentration of 5 nM.
(§2) 5μl of biotinylated-histone H4 peptide (SGRG-K(Ac)-GG-K(Ac)-GLG-K(Ac)-GGA-K(Ac)- RHRKVGG-K(Biotin)) was then added to each well at a final concentration of 500nM. Both GST-ATAD2 and peptide were diluted in buffer B (50 mM Tris pH 7.5, […], 1 mM DTT, 100 μg/ml bovine serum albumin (BSA)). The plate was then incubated at room temperature for 30mins and then 5 μl LanthaScreen® Tb-anti-GST Antibody (Life Technologies) at final concentration of 5 nM was added to each well and incubated for an additional 30mins. 5 μl of streptavidin-XLL65 (Cisbio Assay) at a final concentration of […] was added to each assay well. Both dyes were diluted in buffer C (50 mM Tris pH 7.5, […], 100 μg/ml BSA). The plate was incubated at room temperature for a further 30mins and then read using a PheraStar FS (BMG Labtech). The data were analysed using Graphpad […]
(§3) 1.4 Surface Plasmon Resonance (SPR).
(§4) SPR-based ligand binding assays were performed using Biacore S200 (GE Healthcare) at 25 °C using single cycle affinity.
(§5) ATAD2N1064A was achieved using standard amine coupling on a CM5 chip surface. The surface was prepared through activation with EDC/NHS, followed by injection of 10 µg/ml of respective proteins until target level 8000 RU was reached. The surface was then quenched using 1 M Ethanolamine and washed with running buffer 10 mM HEPES, 150mM NaCl, 0.01% TWEEN20, 0.5 mM TCEP and 1% DMSO with a flow rate of […]. Compounds were injected in a dose-response manner (8 concentration points ranging from 0-200 µM) in series across the control, ATAD2, BRD4, and ATAD2-N1064A flow cells using solvent correction to account for bulk refractive index changes. The reference control channel was subtracted […]
(§6) from immobilised channels and dose-response data was fitted using a steady state constant Rmax 1:1 binding model, using an extrapolated Rmax determined from a binding control compound in those cases where the extrapolated Kd value was greater than the top concentration used in the experiment (200 µM). K d values are reported to the nearest 100th of micromolar. 1 […]
(§7) Crystallisation was performed at 20 °C using the hanging drop vapor diffusion method.
(§8) Crystals of ATAD2 were grown by mixing 2µl ATAD2 at 7mg/ml and 2µl precipitant containing 0.1 M BIS-TRIS pH 6.5 and 2.0 M ammonium sulfate. Crystals were harvested in a diffusion solution containing 10 mM compound, 5% DMSO, 25 mM HEPES pH 7.5, 75 mM NaCl, 50 mM BIS-TRIS pH 6.5 and 1.0 M Ammonium Sulfate for 48hrs. Prior to data collection the crystals were cryo protected with the addition of 25% (v/v) ethylene glycol to the diffusion solution. X-ray diffraction data were recorded at Diamond Light Source (Harwell, Oxfordshire, UK). Data processing was carried out using XDS, POINTLESS/AIMLESS2 and other programs of the CCP4i suite3 run through the CCP4i2 gui. Structures were solved by molecular replacement using PHASER4 and pdb 3DAI as a starting model. REFMAC5 was employed for refinement, and model building was performed using COOT6. PDBs were deposited within the protein database www.pdb.org using accession codes: 11 XXXX, 15a […]

[1] = target: T1, GST-ATAD2 bromodomain / biotinylated acetylated histone H4 peptide (Homo sapiens, UniProt Q6PL18); assay: ATAD2-histone displacement HTRF assay; format: binding; conditions: for IC50: HTRF format assay, highest concentration 1000 μM; for ATAD2 LE: Ligand efficiency (LE) = 1.4(–log IC50)/N, N = number of non-hydrogen atoms, from HTRF IC50
T1 construct: 981-1108; made in house; host or cells: Escherichia coli BL21 (DE3) pLysS, plasmid pGEX-6P-1
T1 sequence (Q6PL18 981-1108): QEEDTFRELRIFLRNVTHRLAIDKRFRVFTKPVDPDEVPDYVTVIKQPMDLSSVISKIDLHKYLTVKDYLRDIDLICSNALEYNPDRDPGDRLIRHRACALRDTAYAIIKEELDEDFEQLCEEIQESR
Description: (§9) Surface plasmon resonance (SPR) was used to assess the direct binding of the fragments and provide Kd values for binding to both ATAD2 and BRD4. SPR can yield artefactual data where the concentration of a small-molecular analyte exceeds ∼250 μM, and accordingly, this was the highest concentration used in the assays.
1.1 Protein Purification.
The ATAD2 bromodomain 981-1108 was expressed with an N-terminal GST fusion from the pGEX-6P-1 plasmid. The plasmids were transformed into BL21 (DE3) pLysS Escherichia coli (Novagen) and then the cells grown in luria bertani (LB) media at 37 °C until an OD600 of 0.6 was reached. The temperature was reduced to 20 °C and expression induced using 0.2 mM Isopropyl β-D-1-thiogalactopyranoside (IPTG). The cells were harvested after overnight incubation and resuspended in buffer A (20 mM HEPES pH 7.4, 100 mM NaCl, 5 mM Dithiothreitol (DTT)). The cells were lysed by sonication and the lysate cleared by centrifugation (50,000 x g, 4 °C, 1 hr). The protein was passed over 5ml of glutathione Sepharose 4B resin (GE Healthcare) at 4 °C. The resin was then washed with buffer A and the protein eluted with buffer A supplemented with 10 mM glutathione. The protein was then applied to a Superdex 200 26/60 gel filtration column (GE Healthcare) equilibrated in buffer […]
1.2 Isothermal Titration Calorimetry.
ATAD2 was exchanged into ITC buffer (50 mM HEPES pH7.4, 200 mM NaCl, 1 mM DTT).
ITC measurements were carried out at 25°C on a Microcal ITC 200 (Malvern Instruments Ltd, Malvern, UK). Compound 11 at 40mM, 2% DMSO was titrated into ATAD2 prepared in the cell at 150 μM, 2% DMSO. Titrations began with an initial 0.5 μL injection followed by 19x 2 μL injections of compound, with 120s spacing between each injection, and stirred at 1000 rpm throughout the experiment. Data were then analysed using Origin 7.0 (OriginLab Corp., Burlington, NC, USA) and fit with the one-set-of-sites model.
1.3 ATAD2-Histone displacement HTRF assay.
Compounds (dissolved to 100 mM in DMSO) were dispensed into black 384 well assay plates […]
as §1, §2, §3, §4
ATAD2N1064A was achieved using standard amine coupling on a CM5 chip surface. The surface was prepared through activation with EDC/NHS, followed by injection of 10 µg/ml of respective proteins until target level 8000 RU was reached. The surface was then quenched using 1 M Ethanolamine and washed with running buffer 10 mM HEPES, 150mM NaCl, 0.01% TWEEN20, 0.5 mM TCEP and 1% DMSO with a flow rate of […]. Compounds were injected in a dose-response manner (8 concentration points ranging from 0-200 µM) in series across the control, ATAD2, BRD4, and ATAD2-N1064A flow cells using solvent correction to account for bulk refractive index changes. The reference control channel was subtracted

ATAD2 bromodomain = target: T2, ATAD2 bromodomain (Homo sapiens, UniProt Q6PL18); assay: Surface plasmon resonance (SPR) direct binding to ATAD2; conditions: SPR format assay; Kd above the top concentration projected by extrapolation (extrapolated Rmax from control compound)
T2 construct: 981-1108; GST (N); made in house; host or cells: Escherichia coli BL21 (DE3) pLysS, plasmid pGEX-6P-1
T2 sequence (Q6PL18 981-1108): T1 sequence (Q6PL18 981-1108)
Description: as §9, §1, §2, §3, §4, §5, §6, §7, §8

Cc1ccc(Cn2cc3c(cc2=O)C(C)(C)C(=O)N3C)cc1 [Compound 17l]
Kd (BRD4): 58 µM | IC50 [1]: 274 ± 75 µM | ATAD2 LE [1]: 0.23 | Kd (ATAD2 bromodomain): > 200 µM | melting point: 180 to 182 °C

CN1C(=O)C(C)(C)c2cc(=O)n(Cc3cccc(C#N)c3)cc21 [Compound 17p]
Kd (BRD4): 184 µM | IC50 [1]: 668 ± 28 µM | ATAD2 LE [1]: 0.19 | Kd (ATAD2 bromodomain): > 200 µM

CN1C(=O)C(C)(C)c2cc(=O)n(Cc3ccccc3C(=O)O)cc21 [Compound 17q]
Kd (BRD4): > 200 µM | IC50 [1]: > 1000 µM | Kd (ATAD2 bromodomain): > 2000 µM

CCC1(CC)C(=O)N(C)c2cn(Cc3ccc(Cl)cc3)c(=O)cc21 [Compound 18a]
Kd (BRD4): > 200 µM | IC50 [1]: 163 ± 23 µM | ATAD2 LE [1]: 0.22 | Kd (ATAD2 bromodomain): 107 µM

CCC1(CC)C(=O)N(C)c2cn(Cc3ccc(C(F)(F)F)cc3)c(=O)cc21 [Compound 18b]
Kd (BRD4): > 2000 µM | IC50 [1]: 163 ± 37 µM | ATAD2 LE [1]: 0.20 | Kd (ATAD2 bromodomain): > 200 µM

CN1C(=O)C(C)(Cc2ccccc2)c2cc(=O)n(Cc3ccc(Cl)cc3)cc21 (stereo not drawn) [Compound 22a]
Kd (BRD4): > 2000 µM | IC50 [1]: > 1000 µM | Kd (ATAD2 bromodomain): > 200 µM

CN1C(=O)C(C)(Cc2ccccn2)c2cc(=O)n(Cc3ccc(Cl)cc3)cc21 (stereo not drawn) [Compound 22b]
Kd (BRD4): > 200 µM | IC50 [1]: > 1000 µM | Kd (ATAD2 bromodomain): > 200 µM

Cc1nc(CC2(C)C(=O)N(C)c3cn(Cc4ccc(Cl)cc4)c(=O)cc32)cs1 (stereo not drawn) [Compound 22c]
Kd (BRD4): > 200 µM | IC50 [1]: 352 µM | ATAD2 LE [1]: 0.17 | Kd (ATAD2 bromodomain): 110 µM

CN1C(=O)C(C)(CC(C)(C)C)c2cc(=O)n(Cc3ccc(Cl)cc3)cc21 (stereo not drawn) [Compound 22d]
Kd (BRD4): > 2000 µM | IC50 [1]: 489 ± 18 µM | ATAD2 LE [1]: 0.18 | Kd (ATAD2 bromodomain): 125 µM

CN1C(=O)C(C)(CC2(C)COC2)c2cc(=O)n(Cc3ccc(Cl)cc3)cc21 (stereo not drawn) [Compound 22e]
Kd (BRD4): > 2000 µM | IC50 [1]: 214 µM | ATAD2 LE [1]: 0.19 | Kd (ATAD2 bromodomain): > 200 µM

CN1C(=O)C(C)(CC2CC2)c2cc(=O)n(Cc3ccc(Cl)cc3)cc21 (stereo not drawn) [Compound 22f]
Kd (BRD4): > 200 µM | IC50 [1]: 304 ± 83 µM | ATAD2 LE [1]: 0.20 | Kd (ATAD2 bromodomain): 113 µM
